Tests used:
Assay in all cases: Test G preemergence/postemergence greenhouse plant response rating 0 to 100
[1] = test system: alfalfa; assay type: in vivo, Medicago ativa; settings: 0 to 100 scale
Excerpt: (§1) Seeds, rhizomes, or plant parts of alfalfa (Medicago ativa), annual bluegrass (Poa annua), bermudagrass (Cynodon dactylon), broadleaf signalgrass (Brachiaria plantaginea), common purslane (Portulaca oleracea), common ragweed (Ambrosia elatior), […] (Paspalum dilatatum), goosegrass (Eleusine indica), guineagrass (Panicum maximum), […] exaltata), johnsongrass (Sorghum halepense), large crabgrass (Digitaria sanguinalis), peanut (Arachis hypoagaea), pitted morningglory (Ipomoea lacunosa), purple nutsedge (Cyperus rotundus), sandbur (Cenchrus echinatus), smooth crabgrass (Digitaria ischaemum) and yellow nutsedge (Cyperus esculentus) were planted into greenhouse pots containing greenhouse planting medium. Each pot contained only one plant species. The test compound was dissolved in a non-phytotoxic solvent and applied preemergence and/or postemergence to the plants. Preemergence applications were made within one day of planting the seeds or plant parts. Postemergence applications were applied when the plants were in the two to four leaf stage (three to twenty cm). Test chemicals were dissolved in a non-phytotoxic solvent and applied preemergence and postemergence to the plants. Untreated control plants and treated plants were placed in the greenhouse and visually evaluated for injury at 13 to 21 days after herbicide application. […] A dash (-) response indicates no test result.

[2] = test system: annual bluegrass; assay type: in vivo, Poa annua; settings: 0 to 100 scale
Excerpt: as §1

[3] = test system: bermudagrass; assay type: in vivo, Cynodon dactylon; settings: 0 to 100 scale
Excerpt: as §1

[4] = test system: common purslane; assay type: in vivo, Portulaca oleracea; settings: 0 to 100 scale
Excerpt: as §1

[5] = test system: common ragweed; assay type: in vivo, Ambrosia elatior; settings: 0 to 100 scale
Excerpt: as §1

[6] = test system: dallisgrass; assay type: in vivo, Paspalum dilatatum; settings: 0 to 100 scale
Excerpt: as §1

[7] = test system: goosegrass; assay type: in vivo, Eleusine indica; settings: 0 to 100 scale
Excerpt: as §1

[8] = test system: guineagrass; assay type: in vivo, Panicum maximum; settings: 0 to 100 scale
Excerpt: as §1

[9] = test system: itchgrass; assay type: in vivo, Rottboellia exaltata; settings: 0 to 100 scale
Excerpt: as §1

[10] = test system: johnsongrass; assay type: in vivo, Sorghum halepense; settings: 0 to 100 scale
Excerpt: as §1

[11] = test system: large crabgrass; assay type: in vivo, Digitaria sanguinalis; settings: 0 to 100 scale
Excerpt: as §1

[12] = test system: peanut; assay type: in vivo, Arachis hypoagaea; settings: 0 to 100 scale
Excerpt: as §1

[13] = test system: pitted morningglory; assay type: in vivo, Ipomoea lacunosa; settings: 0 to 100 scale
Excerpt: as §1

[14] = test system: purple nutsedge; assay type: in vivo, Cyperus rotundus; settings: Rate 125 g/ha, 0 to 100 scale
Excerpt: as §1

[15] = test system: sandbur; assay type: in vivo, Cenchrus echinatus; settings: 0 to 100 scale
Excerpt: as §1

[16] = test system: smooth crabgrass; assay type: in vivo, Digitaria ischaemum; settings: 0 to 100 scale
Excerpt: as §1

[17] = test system: yellow nutsedge; assay type: in vivo, Cyperus esculentus; settings: Rate 125 g/ha, 0 to 100 scale
Excerpt: as §1

CC(C)Oc1cc(-c2nn3c(c2Cl)CCCC3)c(F)cc1Cl [Compound 21]
60: Plant response rating, Itchgrass ([9]; PREEMERGENCE, Rate 125 g/ha) | Plant response rating, Large Crabgrass ([11]; PREEMERGENCE, Rate 250 g/ha)
30: Plant response rating, Ann Bluegrass ([2]; PREEMERGENCE, Rate 125 g/ha) | Plant response rating, Johnsongrass ([10]; PREEMERGENCE, Rate 125 g/ha)
100: Plant response rating, Cmn Purslane ([4]; PREEMERGENCE, Rate 125 g/ha) | Plant response rating, Cmn Ragweed ([5]; POSTEMERGENCE, Rate 250 g/ha) | Plant response rating, Goosegrass ([7]; PREEMERGENCE, Rate 125 g/ha) | Plant response rating, Guineagrass ([8]; PREEMERGENCE, Rate 125 g/ha) | Plant response rating, Large Crabgrass ([11]; PREEMERGENCE, Rate 125 g/ha)
50: Plant response rating, Cmn Ragweed ([5]; PREEMERGENCE, Rate 125 g/ha) | Plant response rating, Cmn Ragweed ([5]; PREEMERGENCE, Rate 250 g/ha)
20: Plant response rating, Bermudagrass ([3]; PREEMERGENCE, Rate 125 g/ha) | Plant response rating, Dallisgrass ([6]; PREEMERGENCE, Rate 125 g/ha) | Plant response rating, Peanuts ([12]; PREEMERGENCE, Rate 250 g/ha) | Plant response rating, Pit Morninglory ([13]; POSTEMERGENCE, Rate 250 g/ha) | Plant response rating, Pit Morninglory ([13]; PREEMERGENCE, Rate 250 g/ha) | Plant response rating, Smooth Crabgras ([16]; PREEMERGENCE, Rate 250 g/ha)
40: Plant response rating, Dallisgrass ([6]; PREEMERGENCE, Rate 250 g/ha)
70: Plant response rating, Cmn Purslane ([4]; POSTEMERGENCE, Rate 125 g/ha) | Plant response rating, Goosegrass ([7]; PREEMERGENCE, Rate 250 g/ha) | Plant response rating, Smooth Crabgras ([16]; PREEMERGENCE, Rate 125 g/ha)
90: Plant response rating, Cmn Purslane ([4]; POSTEMERGENCE, Rate 250 g/ha)
0: Plant response rating, Alfalfa Var. ([1]; POSTEMERGENCE, Rate 125 g/ha) | Plant response rating, Alfalfa Var. ([1]; POSTEMERGENCE, Rate 250 g/ha) | Plant response rating, Alfalfa Var. ([1]; PREEMERGENCE, Rate 125 g/ha) | Plant response rating, Alfalfa Var. ([1]; PREEMERGENCE, Rate 250 g/ha) | Plant response rating, Ann Bluegrass ([2]; POSTEMERGENCE, Rate 125 g/ha) | Plant response rating, Ann Bluegrass ([2]; POSTEMERGENCE, Rate 250 g/ha) | Plant response rating, Ann Bluegrass ([2]; PREEMERGENCE, Rate 250 g/ha) | Plant response rating, Bermudagrass ([3]; POSTEMERGENCE, Rate 125 g/ha) | Plant response rating, Bermudagrass ([3]; POSTEMERGENCE, Rate 250 g/ha) | Plant response rating, Bermudagrass ([3]; PREEMERGENCE, Rate 250 g/ha) | Plant response rating, Cmn Purslane ([4]; PREEMERGENCE, Rate 250 g/ha) | Plant response rating, Cmn Ragweed ([5]; POSTEMERGENCE, Rate 125 g/ha) | Plant response rating, Dallisgrass ([6]; POSTEMERGENCE, Rate 125 g/ha) | Plant response rating, Dallisgrass ([6]; POSTEMERGENCE, Rate 250 g/ha) | Plant response rating, Goosegrass ([7]; POSTEMERGENCE, Rate 125 g/ha) | Plant response rating, Goosegrass ([7]; POSTEMERGENCE, Rate 250 g/ha) | Plant response rating, Guineagrass ([8]; POSTEMERGENCE, Rate 125 g/ha) | Plant response rating, Guineagrass ([8]; POSTEMERGENCE, Rate 250 g/ha) | Plant response rating, Guineagrass ([8]; PREEMERGENCE, Rate 250 g/ha) | Plant response rating, Itchgrass ([9]; POSTEMERGENCE, Rate 125 g/ha) | Plant response rating, Itchgrass ([9]; POSTEMERGENCE, Rate 250 g/ha) | Plant response rating, Itchgrass ([9]; PREEMERGENCE, Rate 250 g/ha) | Plant response rating, Johnsongrass ([10]; POSTEMERGENCE, Rate 125 g/ha) | Plant response rating, Johnsongrass ([10]; POSTEMERGENCE, Rate 250 g/ha) | Plant response rating, Johnsongrass ([10]; PREEMERGENCE, Rate 250 g/ha) | Plant response rating, Large Crabgrass ([11]; POSTEMERGENCE, Rate 125 g/ha) | Plant response rating, Large Crabgrass ([11]; POSTEMERGENCE, Rate 250 g/ha) | Plant response rating, Peanuts ([12]; POSTEMERGENCE, Rate 125 g/ha) | Plant response rating, Peanuts ([12]; POSTEMERGENCE, Rate 250 g/ha) | Plant response rating, Peanuts ([12]; PREEMERGENCE, Rate 125 g/ha) | Plant response rating, Pit Morninglory ([13]; POSTEMERGENCE, Rate 125 g/ha) | Plant response rating, Pit Morninglory ([13]; PREEMERGENCE, Rate 125 g/ha) | Plant response rating, Purple Nutsedge ([14]; POSTEMERGENCE) | Plant response rating, Purple Nutsedge ([14]; PREEMERGENCE) | Plant response rating, S. Sandbur ([15]; POSTEMERGENCE, Rate 125 g/ha) | Plant response rating, S. Sandbur ([15]; POSTEMERGENCE, Rate 250 g/ha) | Plant response rating, S. Sandbur ([15]; PREEMERGENCE, Rate 125 g/ha) | Plant response rating, S. Sandbur ([15]; PREEMERGENCE, Rate 250 g/ha) | Plant response rating, Smooth Crabgras ([16]; POSTEMERGENCE, Rate 125 g/ha) | Plant response rating, Smooth Crabgras ([16]; POSTEMERGENCE, Rate 250 g/ha) | Plant response rating, Yellow Nutsedge ([17]; POSTEMERGENCE) | Plant response rating, Yellow Nutsedge ([17]; PREEMERGENCE)
